Results reported in US10351594B2, “Process for preparing compounds having triple activities of thrombolysis, antithrombosis, and radical scavenging” (Shanghai Lumosa Therapeutics Co., Ltd., priority 2013, dated 2019).
Marks after values point to notes of the source that are not given here.

System: formation of thrombus (rat arteriovenous bypass)
Assay: Antithrombotic activity via intravenous administration, rat arteriovenous bypass cannula with thread
Format: in vivo, male SD rats
Conditions: n = 10

## C[C@H](NC(=O)[C@@H]1CCCN1)C(=O)N[C@@H](CCCCN)C(=O)NCCCC[C@H](NC(=O)[C@@H]1Cc2cc(O)c(O)cc2C(C)(C)N1)C(=O)O [Compound 5Ak, 3S-6,7-dihydroxy-1,1-dimethyl-1,2,3,4-tetrahydro-isoquinoline-3-acyl-Lys(Pro-Ala-Lys)]
Table 4, 5Ak 0.001 nmol/kg i.v.
  wet weight of thrombus: 61.91 ± 3.27^c mg
Table 4, 5Ak 0.01 nmol/kg i.v.
  wet weight of thrombus: 57.34 ± 3.73^b mg
